Experiments:
Experiment in all cases: relative viability (nuclei count vs DMSO), 5 days (fraction); higher = more cells survive
[1] = compound: CC1=C(C(=O)N2C=CSC2=N1)CCN3CCC(=C(C4=CC=CC=C4)C5=CC=C(C=C5)F)CC3 + COc1cccc2cc(-c3nc([C@H]4CC[C@H](C(=O)O)CC4)n4ncnc(N)c34)[nH]c12 [OSI-027] (partner 0.5 µM)
Method in brief: (§1)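 Cells from lung cancer lines were seeded into 1536-well plates and, one day later, dosed by pin tool. Treatments were either a single drug or a fixed dose of an anchor drug with five library-drug doses (not always all listed) in √10 steps. After 5 days, nuclei were stained in a one-step fixation (final 0.05% Triton X-100, 1% formaldehyde, 1 ug/ml Hoechst) and counted on 4× images, and relative viability is the treated-to-vehicle nuclei ratio, as the median of duplicate plates.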

[2] = compound: CC1=C(C(=O)N2C=CSC2=N1)CCN3CCC(=C(C4=CC=CC=C4)C5=CC=C(C=C5)F)CC3 + C[C@]1(O)C[C@@H](c2nc(-c3ccc4ccc(-c5ccccc5)nc4c3)c3c(N)nccn32)C1 [Linsitinib] (partner 1 µM)
Method in brief: as §1

[3] = compound: CC1=C(C(=O)N2C=CSC2=N1)CCN3CCC(=C(C4=CC=CC=C4)C5=CC=C(C=C5)F)CC3 + CCNC(=O)c1noc(-c2cc(C(C)C)c(O)cc2O)c1-c1ccc(CN2CCOCC2)cc1 [Luminespib] (partner 0.01 µM)
Method in brief: as §1

[4] = compound: CC1=C(C(=O)N2C=CSC2=N1)CCN3CCC(=C(C4=CC=CC=C4)C5=CC=C(C=C5)F)CC3 + CS(=O)(=O)CCNCc1ccc(-c2ccc3ncnc(Nc4ccc(OCc5cccc(F)c5)c(Cl)c4)c3c2)o1 [Lapatinib] (partner 2 µM)
Method in brief: as §1

Cell Line	relative viability ([1]; first compound 0.08 µM)	relative viability ([1]; first compound 0.253 µM)	relative viability ([1]; first compound 0.8 µM)	relative viability ([1]; first compound 2.53 µM)	relative viability ([1]; first compound 8 µM)	relative viability ([2]; first compound 0.08 µM)	relative viability ([2]; first compound 0.253 µM)	relative viability ([2]; first compound 0.8 µM)	relative viability ([2]; first compound 2.53 µM)	relative viability ([2]; first compound 8 µM)	relative viability ([3]; first compound 0.08 µM)	relative viability ([3]; first compound 0.253 µM)	relative viability ([3]; first compound 0.8 µM)	relative viability ([3]; first compound 2.53 µM)	relative viability ([3]; first compound 8 µM)	relative viability ([4]; first compound 0.08 µM)	relative viability ([4]; first compound 0.253 µM)	relative viability ([4]; first compound 0.8 µM)	relative viability ([4]; first compound 2.53 µM)	relative viability ([4]; first compound 8 µM)
NCI-H2009	0.638	0.619	0.616	0.637	0.527	1.29	1.29	1.19	1.16	1.12	0.973	0.955	1.08	1.11	0.9	1.01	0.903	0.785	0.946	0.786
NCI-H3122	0.916	1.02	1.11	1.07	0.596	1.04	1.05	0.998	1.19	1.02	0.0707	0.131	0.1	0.0895	0.0997	1.01	1.14	1.03	1.2	0.964
NCI-H460	0.951	0.633	0.605	0.712	0.191	0.475	0.729	0.783	1.13	0.435	0.0343	0.034	0.0356	0.0314	0.0271	0.629	1.32	1.06	0.93	0.496
CAL-12T	0.826	0.718	0.603	0.586	0.428	0.451	0.894	0.833	0.676	0.634	0.224	0.501	0.384	0.502	0.385		0.588	0.754	0.668	0.644
SW 1573		0.645	0.716	0.676	0.351	0.843	0.804	0.795	0.835	0.721	0.155	0.189	0.215	0.245	0.227	1.26	1.2	1.05	1.27	1.06
PC-3 [JPC-3]	0.783	0.662	0.831	0.772	0.633	0.884	0.914	1.01	1.04	0.893	0.802	0.656	0.66	0.678	0.585	0.392	0.496	0.454	0.454	0.449
EKVX	0.46	0.708	0.777	0.744	0.545	0.999	1.05	1.09	0.951	0.839	0.768	0.915	0.936	0.871	0.825	0.173	0.227	0.194	0.19	0.231
UMC-11	0.591	0.469	0.504	0.48	0.351	1.06	0.972	1.04	1.33	0.824	1.18	1.05	1.07	1.11	0.786	0.999	0.745	0.86	1.21	0.821
ChaGo-K-1	0.595	0.636	0.533	0.584	0.489						0.462	0.648	0.644	0.514	0.444					
NCI-H1703						1.14	0.819	0.585	0.888	0.482						1.57	0.717	1.23	1.69	0.62
NCI-H2170	0.774	0.673	0.734	0.726	0.604						0.516	0.733	0.745	0.838	0.537	0.274	0.268	0.276	0.278	0.274
NCI-H1648	0.229			0.209	0.265															
Calu-6						0.927	1.14	0.975	0.875	0.464						1.04	0.925	1.1	1.4	0.817
SW 900	0.452	0.543	0.582	0.719	0.276						0.181	0.182	0.188	0.188	0.174					
NCI-H1650	0.539	0.736	0.583	0.561	0.353						0.182	0.204	0.196	0.188	0.189	0.685	0.891	0.709	0.925	0.579
HCC-366	1.17	1.2	1.04	1.12	0.252		0.645	0.594	0.946	0.265							0.778	1.02	1.71	0.412
LCLC-103H	0.567	0.605	0.401	0.462	0.411	1.03	1.04	0.973	0.924	0.858	0.791	0.947	0.864	0.93	0.594					
NCI-H522	0.857	0.804	0.766	0.633	0.811						1.18	1.16	1.21	1.2	0.897					
NCI-H1299						0.901	0.98	1.09	0.932	0.607						1.04	0.88	0.97	1.03	0.767
HCC-78	0.352	0.349	0.406	0.356	0.326	0.547	0.499	0.518	0.54	0.443						0.851	0.784	0.731	0.779	0.51
NCI-H441	0.505	0.582	0.576	0.754	0.416		0.541	0.777	0.654	0.355	0.314	0.477	0.369	0.361	0.339					
IA-LM						0.538	0.518	0.822	0.427	0.411							0.585	0.789	0.853	0.405

Reference: the supplement of paper PMC10307832
